Patent publication US5756473A, “6-O-methyl erythromycin D and process for making” (Abbott Laboratories, priority 1995, dated 1998)
Values after ≈ are worked out from the molar mass of the structure shown. Like-named read-outs stand apart in the source and are kept apart here.

Assays:
Staphylococcus aureus = experiment: In vitro antibacterial activity, agar dilution MIC (Staphylococcus aureus); type: cell-based; conditions: BHI agar, 35-37 °C, 20 to 24 hours
Experimental: (§1) The 6-O-methyl erythromycin D compound of the present invention was assayed in vitro for antibacterial activity as follows: Twelve petri dishes containing successive aqueous dilutions of the test compound mixed with 10 mL of sterilized Brain Heart Infusion (BHI) agar (Difco 0418-01-5) were prepared. Each plate was inoculated with 1:100 (or 1:10 for slow-growing strains, such as Micrococcus and Streptococcus) dilutions of up to 32 different microorganisms, using a Steers replicator block. The inoculated plates were incubated at 35°-37° C. for 20 to 24 hours. In addition, a control plate, using BHI agar containing no test compound, was prepared and incubated at the beginning and end of each test.
(§2) An additional plate containing a compound having known susceptibility patterns for the organisms being tested and belonging to the same antibiotic class as the test compound was also prepared and incubated as a further control, as well as to provide test-to-test comparability. Erythromycin A was used for this purpose.
(§3) After incubation, each disk was read. The minimum inhibitory concentration (MIC) was defined as the lowest concentration of drug yielding no growth, a slight haze, or sparsely isolated colonies on the inoculum spot as compared to the growth control.

[1] = test system: Staphylococcus epidermidis; experiment: In vitro antibacterial activity, agar dilution MIC (Staphylococcus epidermidis); type: cell-based
Experimental: as §1, §2, §3

Enterococcus faecium = experiment: In vitro antibacterial activity, agar dilution MIC (Enterococcus faecium); type: cell-based; conditions: ATCC8043, strain ATCC 8043, BHI agar, 35-37 °C, 20 to 24 hours
Streptococcus bovis = experiment: In vitro antibacterial activity, agar dilution MIC (Streptococcus bovis); type: cell-based; conditions: Streptococcus equinus
Experimental: as §1, §2, §3

Streptococcus agalactiae = experiment: In vitro antibacterial activity, agar dilution MIC (Streptococcus agalactiae); type: cell-based
Experimental: as §1, §2, §3

Streptococcus pyogenes = experiment: In vitro antibacterial activity, agar dilution MIC (Streptococcus pyogenes); type: cell-based; conditions: 35-37 °C, 20 to 24 hours
Experimental: as §1, §2, §3

Micrococcus luteus = experiment: In vitro antibacterial activity, agar dilution MIC (Micrococcus luteus); type: cell-based
Experimental: as §1, §2, §3

Escherichia coli = experiment: In vitro antibacterial activity, agar dilution MIC (Escherichia coli); type: cell-based; conditions: 35-37 °C, 20 to 24 hours
Enterobacter aerogenes = experiment: In vitro antibacterial activity, agar dilution MIC (Enterobacter aerogenes); type: cell-based; conditions: Klebsiella aerogenes, ATCC13048; strain ATCC 13048; BHI agar, 35-37 °C, 20 to 24 hours
[2] = test system: Acinetobacter calcoaceticus; experiment: microbe, parasite or virus in culture
Experimental: as §1, §2, §3

Klebsiella pneumoniae = experiment: microbe, parasite or virus in culture; conditions: ATCC8045
Experimental: as §1, §2, §3

Providencia stuartii = experiment: In vitro antibacterial activity, agar dilution MIC (Providencia stuartii); type: cell-based; conditions: strain CMX 640, BHI agar, 35-37 °C, 20 to 24 hours
Pseudomonas aeruginosa = experiment: In vitro antibacterial activity, agar dilution MIC (Pseudomonas aeruginosa); type: cell-based; conditions: for MIC: Pseudomonas aeruginosa
Experimental: as §1, §2, §3

Mycobaceterium smegmatis = experiment: In vitro antibacterial activity, agar dilution MIC (Mycobaceterium smegmatis); type: cell-based
Experimental: as §1, §2, §3

Nocardia asteroides = experiment: In vitro antibacterial activity, agar dilution MIC (Nocardia asteroides); type: cell-based; conditions: ATCC9970, strain ATCC 9970, BHI agar, 35-37 °C, 20 to 24 hours
Experimental: as §1, §2, §3

Candida albicans = experiment: microbe, parasite or virus in culture
Experimental: as §1, §2, §3

microorganisms = experiment: In vitro assay of antibacterial activity (overall conclusion); type: cell-based; conditions: overall conclusion from Table 1
Experimental: Erythromycin A was used for this purpose.
After incubation, each disk was read.

[3] = Staphylococcus aureus, strain 1775 Cipro R
[4] = Staphylococcus aureus, strain A5177
[5] = Staphylococcus aureus, strain A5278
[6] = strain DC-2, BHI agar, read-out: MIC
[7] = strain Juhl, BHI agar, read-out: MIC
[8] = strain KNK 437, BHI agar, read-out: MIC
[9] = strain SS, BHI agar, read-out: MIC
[10] = strain 2862, BHI agar, 35-37 °C, 20 to 24 hours
[11] = strain 5263, BHI agar, 35-37 °C, 20 to 24 hours
[12] = strain A5007, BHI agar, 35-37 °C, 20 to 24 hours
[13] = strain K799/WT, BHI agar, 35-37 °C, 20 to 24 hours

| Structure (SMILES) | MIC (Staphylococcus aureus; [3]) [µg/mL] | MIC (Staphylococcus aureus; [4]) [µg/mL] | MIC (Staphylococcus aureus; [5]) [µg/mL] | MIC (Enterococcus faecium) [µg/mL] | MIC (Streptococcus pyogenes; strain 930 const, BHI agar) [µg/mL] | MIC (Streptococcus pyogenes; strain 2548 induc, BHI agar) [µg/mL] | MIC (Micrococcus luteus) [µg/mL] | MIC (Escherichia coli; [6]) [µg/mL] | MIC (Escherichia coli; strain H560, BHI agar) [µg/mL] | MIC (Escherichia coli; [7]) [µg/mL] | MIC (Escherichia coli; [8]) [µg/mL] | MIC (Escherichia coli; [9]) [µg/mL] | MIC (Enterobacter aerogenes) [µg/mL] | MIC [2] [µg/mL] | MIC (Klebsiella pneumoniae) [µg/mL] | MIC (Providencia stuartii) [µg/mL] | MIC (Pseudomonas aeruginosa) [µg/mL] | MIC (Pseudomonas aeruginosa; [10]) [µg/mL] | MIC (Pseudomonas aeruginosa; [11]) [µg/mL] | MIC (Pseudomonas aeruginosa; [12]) [µg/mL] | further results |
| --- | --- | --- | --- | --- | --- | --- | --- | --- | --- | --- | --- | --- | --- | --- | --- | --- | --- | --- | --- | --- | --- |
| CC[C@H]1OC(=O)[C@H](C)[C@@H](O[C@H]2C[C@@](C)(OC)[C@@H](O)[C@H](C)O2)[C@H](C)[C@@H](O[C@@H]2O[C@H](C)C[C@H](N(C)C)[C@H]2O)[C@](C)(O)C[C@@H](C)C(=O)[C@H](C)[C@@H](O)[C@]1(C)O [Erythromycin A, reference compound] | > 100 | 1.56 (≈ 2.13 µM) | > 100 | 0.05 (≈ 0.0681 µM) | > 100 | 6.2 (≈ 8.45 µM) | 0.01 (≈ 0.0136 µM) | 50 (≈ 68.1 µM) | 2.5 (≈ 3.41 µM) | 50 (≈ 68.1 µM) | 50 (≈ 68.1 µM) | 0.2 (≈ 0.273 µM) | 100 (≈ 136 µM) | 12.5 (≈ 17 µM) | 50 (≈ 68.1 µM) | > 100 | > 100 | > 100 | > 100 | > 100 | MIC (Staphylococcus aureus; Staphylococcus aureus, ATCC6538P, strain ATCC 6538P): 0.2 µg/mL (≈ 0.273 µM); MIC (Staphylococcus aureus; Staphylococcus aureus, NCTC10649, strain NCTC 10649): 0.2 µg/mL (≈ 0.273 µM); MIC (Staphylococcus aureus; Staphylococcus aureus, strain CMX 553): 0.2 µg/mL (≈ 0.273 µM); MIC (Staphylococcus aureus; Staphylococcus aureus, strain 642a): 0.2 µg/mL (≈ 0.273 µM); MIC [1]: 0.2 µg/mL (≈ 0.273 µM); MIC (Streptococcus bovis): 0.02 µg/mL (≈ 0.0273 µM); MIC (Streptococcus agalactiae): 0.05 µg/mL (≈ 0.0681 µM); MIC (Streptococcus pyogenes; strain EES61, BHI agar): 0.05 µg/mL (≈ 0.0681 µM); MIC (Micrococcus luteus; ATCC9341): 0.05 µg/mL (≈ 0.0681 µM); MIC (Pseudomonas aeruginosa; strain K799/61, BHI agar, 35-37 °C, 20 to 24 hours): > 100 µg/mL; MIC (Pseudomonas aeruginosa; [13]): > 100 µg/mL; MIC (Mycobaceterium smegmatis): 12.5 µg/mL (≈ 17 µM); MIC (Nocardia asteroides): 0.05 µg/mL (≈ 0.0681 µM) |
| CC[C@H]1OC(=O)[C@H](C)[C@@H](O[C@H]2C[C@@](C)(O)[C@@H](O)[C@H](C)O2)[C@H](C)[C@@H](O[C@@H]2O[C@H](C)C[C@H](N(C)C)[C@H]2O)[C@](C)(OC)C[C@@H](C)C(=O)[C@H](C)[C@@H](O)[C@H]1C [Example 3, 6-O-Methylerythromycin D] | > 100 | 3.1 (≈ 4.32 µM) | > 100 | 0.1 (≈ 0.139 µM) | > 100 | 3.1 (≈ 4.32 µM) | 1.56 (≈ 2.17 µM) | > 100 | > 100 | > 100 | > 100 | 0.39 (≈ 0.543 µM) | > 100 | > 100 | > 100 | > 100 | 1.56 (≈ 2.17 µM) | > 100 | > 100 | > 100 | MIC (Staphylococcus aureus; Staphylococcus aureus, ATCC6538P, strain ATCC 6538P, read-out: MIC): 0.39 µg/mL (≈ 0.543 µM); MIC (Staphylococcus aureus; Staphylococcus aureus, NCTC10649, strain NCTC 10649, read-out: MIC): 0.39 µg/mL (≈ 0.543 µM); MIC (Staphylococcus aureus; Staphylococcus aureus, strain 642a, read-out: MIC): 0.39 µg/mL (≈ 0.543 µM); MIC (Staphylococcus aureus; strain CMX 553): 0.39 µg/mL (≈ 0.543 µM); MIC ([1]; strain 3519, BHI agar, 35-37 °C, 20 to 24 hours, read-out: MIC): 0.39 µg/mL (≈ 0.543 µM); MIC (Streptococcus bovis; strain A5169, BHI agar, 35-37 °C, 20 to 24 hours, read-out: MIC): 0.01 µg/mL (≈ 0.0139 µM); MIC (Streptococcus agalactiae; strain 508, BHI agar, 35-37 °C, 20 to 24 hours, read-out: MIC): 0.05 µg/mL (≈ 0.0696 µM); MIC (Streptococcus pyogenes; strain EES61, BHI agar, read-out: MIC): 0.05 µg/mL (≈ 0.0696 µM); MIC (Micrococcus luteus; ATCC9341, strain ATCC 9341, BHI agar, 35-37 °C, 20 to 24 hours, read-out: MIC): 0.05 µg/mL (≈ 0.0696 µM); MIC (Candida albicans): > 100 µg/mL; antibacterial effectiveness (in words) (Pseudomonas aeruginosa; Pseudomonas aeruginosa K799/61, comparison with Erythromycin A control): significantly more effective; MIC (Pseudomonas aeruginosa; strain BMH10, BHI agar, 35-37 °C, 20 to 24 hours): > 100 µg/mL; MIC (Pseudomonas aeruginosa; [13]): > 100 µg/mL; antibacterial effectiveness (in words) (Mycobaceterium smegmatis; Mycobaceterium smegmatis ATCC 114, comparison with Erythromycin A control): significantly more effective; MIC (Mycobaceterium smegmatis; strain ATCC 114, BHI agar, 35-37 °C, 20 to 24 hours, read-out: MIC): 0.78 µg/mL (≈ 1.09 µM); MIC (Nocardia asteroides): 0.05 µg/mL (≈ 0.0696 µM); antibacterial activity (in words) (microorganisms): effective antibacterial agent |
